Series [1] relates to MGC-803. Briefly: Induction of apoptosis in human MGC-803 cells assessed as early apoptic cells at 0.1 uM after 24 hrs by Annexin V-FITC/PI staining based flow cytometry method (reference value: 0%). In kind it is functional. (A flow cytometer gives signals particle by particle.)
In series [2] the test system is SGC-7901. Briefly: Antimigratory activity against human SGC-7901 cells assessed as inhibition on cell migration at 0.1 to 0.9 uM measured after 24 hrs by transwell assay. The conditions noted are these: dose 0.1-0.9 µM. Format: functional, cell-based.
Series [3] concerns MGC-803. The series can be described thus: Antitumor activity against human MGC-803 cells xenografted in BALB/c nude mouse assessed as tumor inhibition rate at 50 mg/kg, ip for 16 days. In kind it is functional. The conditions noted are these: MGC-803, ip, 384 h, time 16 day, read-out: TGI.
The test system of series [4] is MGC-803. The series can be described thus: Induction of apoptosis in human MGC-803 cells assessed as necrotic cells at 0.1 uM after 24 hrs by Annexin V-FITC/PI staining based flow cytometry method (reference value: 0.05%). Format: functional.
For series [5], the system named is MGC-803. The series can be described thus: Induction of apoptosis in human MGC-803 cells assessed as early apoptic cells at 0.9 uM after 24 hrs by Annexin V-FITC/PI staining based flow cytometry method (reference value: 0%). In kind it is functional.
The subject of series [6] is SGC-7901. The series can be described thus: Induction of apoptosis in human SGC-7901 cells assessed as viable cells at 0.9 uM after 24 hrs by Annexin V-FITC/PI staining based flow cytometry method (reference value: 99.95%). Format: functional. The conditions noted are these: read-out: Activity.
Series [7] relates to MGC-803. Briefly: Antiinvasive activity against human MGC-803 cells assessed as reduction in cell invasion at 0.03 to 0.3 uM incubated for 24 hrs by matrigel-coated transwell assay. In kind it is functional, cell-based. The conditions noted are these: dose 0.03-0.3 µM.
Series [8] concerns MGC-803. The series can be described thus: Antimigratory activity against human MGC-803 cells assessed as inhibition on cell migration at 0.1 to 0.9 uM measured after 24 hrs by transwell assay. In kind it is functional, cell-based. The conditions noted are these: dose 0.1-0.9 µM.
The subject of series [9] is SGC-7901. The series can be described thus: Induction of apoptosis in human SGC-7901 cells assessed as chromatin condensation incubated for 24 hrs by Giemsa staining method. Format: functional, cell-based.
The subject of another series is Heart. The series can be described thus: Acute toxicity in Kunming mouse assessed as effect on heart at 1000 mg/kg, ip measured for 14 days by H and E staining based histological analysis. Format: organism-based. The conditions noted are these: in vivo, 336 h, time 14 day.
Series [10] deals with MGC-803. The series can be described thus: Induction of cell cycle arrest in human MGC-803 cells assessed as accumulation at G2/M phase at 0.1 to 0.9 uM after 24 hrs by propidium iodide staining based flow cytometry. In kind it is functional. The conditions noted are these: dose 0.1-0.9 µM.
The test system of series [11] is MGC-803. Briefly: Antiproliferative activity against human MGC-803 cells assessed as reduction in cell viability measured after 72 hrs by MTT assay. In kind it is functional, cell-based. The conditions noted are these: MGC-803, 72 h.
The nature of series [12]: Toxicity in BALB/c nude mouse xenografted with human MGC-803 cells assessed as change in body weight at 50 mg/kg, ip for 16 days. The conditions noted are these: in vivo, 384 h, time 16 day. In kind it is organism-based. Background: A xenograft is tissue or cells of one species grown in another, often human tumour cells in immunodeficient mice.
For series [13], the target named is T1, DNA topoisomerase 1 (Homo sapiens) (UniProt P11387).
T1 sequence (whole entry): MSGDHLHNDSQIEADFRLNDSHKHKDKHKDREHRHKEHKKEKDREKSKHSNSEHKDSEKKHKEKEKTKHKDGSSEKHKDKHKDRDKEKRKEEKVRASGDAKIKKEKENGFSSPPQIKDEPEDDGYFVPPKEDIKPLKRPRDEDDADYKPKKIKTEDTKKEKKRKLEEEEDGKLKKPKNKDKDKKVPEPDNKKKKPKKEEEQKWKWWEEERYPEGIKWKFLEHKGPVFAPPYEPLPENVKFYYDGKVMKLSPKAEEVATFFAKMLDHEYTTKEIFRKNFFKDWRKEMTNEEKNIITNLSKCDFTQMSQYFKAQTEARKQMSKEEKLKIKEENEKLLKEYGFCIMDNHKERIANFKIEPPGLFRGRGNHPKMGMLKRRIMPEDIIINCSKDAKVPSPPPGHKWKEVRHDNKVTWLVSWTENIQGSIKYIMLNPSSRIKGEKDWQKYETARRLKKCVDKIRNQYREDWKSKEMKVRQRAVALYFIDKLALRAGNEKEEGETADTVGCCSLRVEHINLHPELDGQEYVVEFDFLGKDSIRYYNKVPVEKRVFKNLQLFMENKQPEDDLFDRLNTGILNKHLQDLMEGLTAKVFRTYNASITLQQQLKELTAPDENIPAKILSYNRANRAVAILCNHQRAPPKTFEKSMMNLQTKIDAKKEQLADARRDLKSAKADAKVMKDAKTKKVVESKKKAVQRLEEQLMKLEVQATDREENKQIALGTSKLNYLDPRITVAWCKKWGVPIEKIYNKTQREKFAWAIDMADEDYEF
Briefly: Inhibition of topoisomerase 1 (unknown origin) assessed at 100 uM incubated for 15 mins by ethidium bromide staining based agarose gel electrophoresis method.

Active and inactive are the calls of the source. The rule behind the calls is not given here.

As for `Cc1ccc2c(c1)C(=O)N1CCc3c([nH]c4ccc(C)cc34)C1N2c1cccc(F)c1` (centres undefined), the Activity in the series on MGC-803 [1] is 6.79%; with MGC-803 [4] it was 0%; in the series with MGC-803 [5] it was 32.51%; in the series on Heart it was “Non-Toxic”; in the series with MGC-803 [10], 18.29%; in series [12], “Non-Toxic”. For the same compound, the outcome with SGC-7901 [2], in the series on MGC-803 [7], in the series on MGC-803 [8] and in the series on SGC-7901 [9] was Active. In addition, the inhibition in vivo at 50 mg/kg in the series on MGC-803 [3] is 70.1%. Besides, the viability at 0.9 µM in the series on SGC-7901 [6] was found to be 76.8%. Besides, the half-inhibitory concentration (IC50) (in general, the concentration that gives 50% inhibition) in the series on MGC-803 [11] was found to be 440 nM. Further, in [13], the inhibition (in general, the percentage by which the read-out fell short of the control) was found to be 80.8%.
